{
  "source": "patent US20230053540A1",
  "about": "“TREATMENT OF LIVER INJURY” (Massachusetts Institute of Technology, priority 2019, published 2023)",
  "test_system": "hepatocytes",
  "experiment": "Seq-Well scRNA-Seq of hepatocytes after APAP overdose (signature scores, DEG vs untreated)",
  "assay_type": "in vivo, mouse",
  "data": [
    {"smiles": "CC(=O)Nc1ccc(O)cc1", "note": "[APAP, acetaminophen]", "values": [
      {"measurement": "Ubb A48logFC", "setting": "A48 vs UT", "value": "−0.2644"},
      {"measurement": "0610005C13Rik avg_logFC", "setting": "A96 vs untreated (UT)", "value": 0.2979},
      {"measurement": "0610005C13Rik pct.1", "setting": "A96 vs untreated (UT)", "value": 0.816},
      {"measurement": "0610007P14Rik avg_logFC", "setting": "A96 vs untreated (UT)", "value": 0.2519},
      {"measurement": "0610007P14Rik pct.1", "setting": "A96 vs untreated (UT)", "value": 0.512},
      {"measurement": "8430408G22Rik avg_logFC", "setting": "A96 vs untreated (UT)", "value": 0.2527},
      {"measurement": "8430408G22Rik pct.1", "setting": "A96 vs untreated (UT)", "value": 0.559},
      {"measurement": "Abca6 avg_logFC", "setting": "A96 vs untreated (UT)", "value": 0.2823},
      {"measurement": "Abca6 pct.1", "setting": "A96 vs untreated (UT)", "value": 0.686},
      {"measurement": "Abcb4 avg_logFC", "setting": "A96 vs untreated (UT)", "value": 0.4758},
      {"measurement": "Abcb4 pct.1", "setting": "A96 vs untreated (UT)", "value": 0.878},
      {"measurement": "Abcc3 pct.1", "setting": "A96 vs untreated (UT)", "value": 0.733},
      {"measurement": "Acad11 avg_logFC", "setting": "A96 vs untreated (UT)", "value": 0.2578},
      {"measurement": "Acad11 pct.1", "setting": "A96 vs untreated (UT)", "value": 0.711},
      {"measurement": "Acadl avg_logFC", "setting": "A96 vs untreated (UT)", "value": 0.2937},
      {"measurement": "Acadl pct.1", "setting": "A96 vs untreated (UT)", "value": 0.8},
      {"measurement": "Acat1 avg_logFC", "setting": "A96 vs untreated (UT)", "value": 0.3485},
      {"measurement": "Acat1 pct.1", "setting": "A96 vs untreated (UT)", "value": 0.917},
      {"measurement": "Acbd5 avg_logFC", "setting": "A96 vs untreated (UT)", "value": 0.4341},
      {"measurement": "Acbd5 pct.1", "setting": "A96 vs untreated (UT)", "value": 0.87},
      {"measurement": "Acot1 avg_logFC", "setting": "A96 vs untreated (UT)", "value": 0.298},
      {"measurement": "Acot1 pct.1", "setting": "A96 vs untreated (UT)", "value": 0.459},
      {"measurement": "Acot4 avg_logFC", "setting": "A96 vs untreated (UT)", "value": 0.268},
      {"measurement": "Acot4 pct.1", "setting": "A96 vs untreated (UT)", "value": 0.328},
      {"measurement": "Acot12 avg_logFC", "setting": "A96 vs untreated (UT)", "value": 0.2957},
      {"measurement": "Acot12 pct.1", "setting": "A96 vs untreated (UT)", "value": 0.65},
      {"measurement": "Acsl1 avg_logFC", "setting": "A96 vs untreated (UT)", "value": 0.2915},
      {"measurement": "Acsl1 pct.1", "setting": "A96 vs untreated (UT)", "value": 0.977},
      {"measurement": "Actn4 avg_logFC", "setting": "A96 vs untreated (UT)", "value": 0.2609},
      {"measurement": "Actn4 pct.1", "setting": "A96 vs untreated (UT)", "value": 0.6},
      {"measurement": "Agpat6 avg_logFC", "setting": "A96 vs untreated (UT)", "value": 0.4098},
      {"measurement": "Agpat6 pct.1", "setting": "A96 vs untreated (UT)", "value": 0.743},
      {"measurement": "Agt avg_logFC", "setting": "A96 vs untreated (UT)", "value": 0.3765},
      {"measurement": "Agt pct.1", "setting": "A96 vs untreated (UT)", "value": 0.912},
      {"measurement": "Akr1c6 avg_logFC", "setting": "A96 vs untreated (UT)", "value": "−0.359"},
      {"measurement": "Akr1c6 pct.1", "setting": "A96 vs untreated (UT)", "value": 0.967},
      {"measurement": "Akr1d1 avg_logFC", "setting": "A96 vs untreated (UT)", "value": 0.3787},
      {"measurement": "Akr1d1 pct.1", "setting": "A96 vs untreated (UT)", "value": 0.721},
      {"measurement": "Aldh2 avg_logFC", "setting": "A96 vs untreated (UT)", "value": 0.304},
      {"measurement": "Aldh2 pct.1", "setting": "A96 vs untreated (UT)", "value": 0.995},
      {"measurement": "Aldh3a2 avg_logFC", "setting": "A96 vs untreated (UT)", "value": 0.4933},
      {"measurement": "Aldh3a2 pct.1", "setting": "A96 vs untreated (UT)", "value": 0.687},
      {"measurement": "Aldh6a1 avg_logFC", "setting": "A96 vs untreated (UT)", "value": 0.2669},
      {"measurement": "Aldh6a1 pct.1", "setting": "A96 vs untreated (UT)", "value": 0.829},
      {"measurement": "Aldh9a1 avg_logFC", "setting": "A96 vs untreated (UT)", "value": 0.3633},
      {"measurement": "Aldh9a1 pct.1", "setting": "A96 vs untreated (UT)", "value": 0.884},
      {"measurement": "Amy1 avg_logFC", "setting": "A96 vs untreated (UT)", "value": 0.4212},
      {"measurement": "Amy1 pct.1", "setting": "A96 vs untreated (UT)", "value": 0.831},
      {"measurement": "Angptl3 avg_logFC", "setting": "A96 vs untreated (UT)", "value": 0.6936},
      {"measurement": "Angptl3 pct.1", "setting": "A96 vs untreated (UT)", "value": 0.998},
      {"measurement": "Apoc1 avg_logFC", "setting": "A96 vs untreated (UT)", "value": 0.5008},
      {"measurement": "Apoc1 pct.1", "setting": "A96 vs untreated (UT)", "value": 1},
      {"measurement": "Apoc2 avg_logFC", "setting": "A96 vs untreated (UT)", "value": 0.5187},
      {"measurement": "Apoc2 pct.1", "setting": "A96 vs untreated (UT)", "value": 0.901},
      {"measurement": "Apoc3 avg_logFC", "setting": "A96 vs untreated (UT)", "value": 0.3002},
      {"measurement": "Apoe avg_logFC", "setting": "A96 vs untreated (UT)", "value": 0.327},
      {"measurement": "Apoe pct.1", "setting": "A96 vs untreated (UT)", "value": 1},
      {"measurement": "Apoh avg_logFC", "setting": "A96 vs untreated (UT)", "value": 0.3467},
      {"measurement": "Apoh pct.1", "setting": "A96 vs untreated (UT)", "value": 0.998},
      {"measurement": "Apol7a avg_logFC", "setting": "A96 vs untreated (UT)", "value": 0.2716},
      {"measurement": "Apol7a pct.1", "setting": "A96 vs untreated (UT)", "value": 0.559},
      {"measurement": "Aqp9 avg_logFC", "setting": "A96 vs untreated (UT)", "value": 0.3346},
      {"measurement": "Aqp9 pct.1", "setting": "A96 vs untreated (UT)", "value": 0.801},
      {"measurement": "Arl4a avg_logFC", "setting": "A96 vs untreated (UT)", "value": 0.2911},
      {"measurement": "Arl4a pct.1", "setting": "A96 vs untreated (UT)", "value": 0.517},
      {"measurement": "Asl avg_logFC", "setting": "A96 vs untreated (UT)", "value": 0.4141},
      {"measurement": "Asl pct.1", "setting": "A96 vs untreated (UT)", "value": 0.896},
      {"measurement": "Atf5 avg_logFC", "setting": "A96 vs untreated (UT)", "value": 0.2708},
      {"measurement": "Atf5 pct.1", "setting": "A96 vs untreated (UT)", "value": 0.745},
      {"measurement": "Atp5k avg_logFC", "setting": "A96 vs untreated (UT)", "value": 0.4068},
      {"measurement": "Atp5k pct.1", "setting": "A96 vs untreated (UT)", "value": 0.837},
      {"measurement": "Atp5h avg_logFC", "setting": "A96 vs untreated (UT)", "value": 0.3114},
      {"measurement": "Atp5h pct.1", "setting": "A96 vs untreated (UT)", "value": 0.848},
      {"measurement": "Atxn7l3b avg_logFC", "setting": "A96 vs untreated (UT)", "value": 0.2828},
      {"measurement": "Atxn7l3b pct.1", "setting": "A96 vs untreated (UT)", "value": 0.654},
      {"measurement": "BC005537 avg_logFC", "setting": "A96 vs untreated (UT)", "value": 0.2869},
      {"measurement": "BC005537 pct.1", "setting": "A96 vs untreated (UT)", "value": 0.611},
      {"measurement": "Baat avg_logFC", "setting": "A96 vs untreated (UT)", "value": 0.2625},
      {"measurement": "Baat pct.1", "setting": "A96 vs untreated (UT)", "value": 0.862},
      {"measurement": "Bche avg_logFC", "setting": "A96 vs untreated (UT)", "value": 0.3287},
      {"measurement": "Bche pct.1", "setting": "A96 vs untreated (UT)", "value": 0.588},
      {"measurement": "Bnip3 avg_logFC", "setting": "A96 vs untreated (UT)", "value": 0.3443},
      {"measurement": "Bnip3 pct.1", "setting": "A96 vs untreated (UT)", "value": 0.716},
      {"measurement": "Brap avg_logFC", "setting": "A96 vs untreated (UT)", "value": 0.3113},
      {"measurement": "Brap pct.1", "setting": "A96 vs untreated (UT)", "value": 0.642},
      {"measurement": "Brd2 avg_logFC", "setting": "A96 vs untreated (UT)", "value": 0.3104},
      {"measurement": "Brd2 pct.1", "setting": "A96 vs untreated (UT)", "value": 0.601},
      {"measurement": "Cbr1 avg_logFC", "setting": "A96 vs untreated (UT)", "value": 0.2829},
      {"measurement": "Cbr1 pct.1", "setting": "A96 vs untreated (UT)", "value": 0.591},
      {"measurement": "Cd36 avg_logFC", "setting": "A96 vs untreated (UT)", "value": 0.3312},
      {"measurement": "Cd36 pct.1", "setting": "A96 vs untreated (UT)", "value": 0.299},
      {"measurement": "Cdo1 avg_logFC", "setting": "A96 vs untreated (UT)", "value": 0.5679},
      {"measurement": "Cdo1 pct.1", "setting": "A96 vs untreated (UT)", "value": 0.998},
      {"measurement": "Ces1c avg_logFC", "setting": "A96 vs untreated (UT)", "value": 0.3583},
      {"measurement": "Ces1c pct.1", "setting": "A96 vs untreated (UT)", "value": 1},
      {"measurement": "Ces1e avg_logFC", "setting": "A96 vs untreated (UT)", "value": 0.2944},
      {"measurement": "Ces1e pct.1", "setting": "A96 vs untreated (UT)", "value": 0.71},
      {"measurement": "Ces3a avg_logFC", "setting": "A96 vs untreated (UT)", "value": "−0.2844"},
      {"measurement": "Ces3a pct.1", "setting": "A96 vs untreated (UT)", "value": 0.97},
      {"measurement": "Ces3b avg_logFC", "setting": "A96 vs untreated (UT)", "value": "−0.3398"},
      {"measurement": "Ces3b pct.1", "setting": "A96 vs untreated (UT)", "value": 0.685}
    ]}
  ]
}
